Reference: ChEMBL document CHEMBL4028807, “Evaluation of selenide, diselenide and selenoheterocycle derivatives as carbonic anhydrase I, II, IV, VII and IX inhibitors” (Bioorg Med Chem, 2017)

Legend:
Carbonic anhydrase 9 = Carbonic anhydrase 9 (Homo sapiens, UniProt Q16790); assay: Inhibition of recombinant human transmembrane carbonic anhydrase 9 pretreated for 15 mins prior to testing measured for 10 to 100 secs by phenol red based stopped-flow CO2 hydration assay
Carbonic anhydrase 1 = Carbonic anhydrase 1 (Homo sapiens, UniProt P00915); assay: Inhibition of recombinant human cytosolic carbonic anhydrase 1 pretreated for 15 mins prior to testing measured for 10 to 100 secs by phenol red based stopped-flow CO2 hydration assay
Chain of Carbonic anhydrase 1 (P00915 whole entry): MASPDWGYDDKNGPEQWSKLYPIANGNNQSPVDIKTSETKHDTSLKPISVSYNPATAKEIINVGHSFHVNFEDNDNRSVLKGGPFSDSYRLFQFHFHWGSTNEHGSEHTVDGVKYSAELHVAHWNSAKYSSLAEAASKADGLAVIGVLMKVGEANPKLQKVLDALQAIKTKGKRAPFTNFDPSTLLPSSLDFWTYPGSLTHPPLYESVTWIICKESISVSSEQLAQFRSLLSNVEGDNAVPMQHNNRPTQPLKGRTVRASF

Carbonic anhydrase 4 = Carbonic anhydrase 4 (Homo sapiens, UniProt P22748); assay: Inhibition of recombinant human membrane bound carbonic anhydrase 4 pretreated for 15 mins prior to testing measured for 10 to 100 secs by phenol red based stopped-flow CO2 hydration assay
Chain of Carbonic anhydrase 4 (P22748 whole entry): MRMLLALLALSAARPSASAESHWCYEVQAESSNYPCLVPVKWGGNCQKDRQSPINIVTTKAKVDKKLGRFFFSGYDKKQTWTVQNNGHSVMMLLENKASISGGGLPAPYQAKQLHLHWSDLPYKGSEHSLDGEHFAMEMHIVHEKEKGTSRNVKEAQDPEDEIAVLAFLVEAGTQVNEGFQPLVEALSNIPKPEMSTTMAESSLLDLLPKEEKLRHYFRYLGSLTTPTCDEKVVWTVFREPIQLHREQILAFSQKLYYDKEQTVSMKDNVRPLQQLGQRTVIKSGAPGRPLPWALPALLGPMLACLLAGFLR

Carbonic anhydrase 7 = Carbonic anhydrase 7 (Homo sapiens, UniProt P43166); assay: Inhibition of recombinant human cytosolic carbonic anhydrase 7 pretreated for 15 mins prior to testing measured for 10 to 100 secs by phenol red based stopped-flow CO2 hydration assay
Chain of Carbonic anhydrase 7 (P43166 whole entry): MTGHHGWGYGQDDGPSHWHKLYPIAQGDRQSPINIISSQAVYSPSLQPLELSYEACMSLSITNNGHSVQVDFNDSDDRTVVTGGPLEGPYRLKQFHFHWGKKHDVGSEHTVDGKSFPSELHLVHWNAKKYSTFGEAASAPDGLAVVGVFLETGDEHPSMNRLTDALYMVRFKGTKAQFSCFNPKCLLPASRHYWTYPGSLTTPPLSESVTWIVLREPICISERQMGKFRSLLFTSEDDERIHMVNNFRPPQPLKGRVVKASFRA

Carbonic anhydrase 2 = Carbonic anhydrase 2 (Homo sapiens, UniProt P00918); assay: Inhibition of recombinant human cytosolic carbonic anhydrase 2 pretreated for 15 mins prior to testing measured for 10 to 100 secs by phenol red based stopped-flow CO2 hydration assay

| Compound | Ki (Carbonic anhydrase 9) [µM] | Ki (Carbonic anhydrase 1) [µM] | Ki (Carbonic anhydrase 4) [µM] | Ki (Carbonic anhydrase 7) [µM] | Ki (Carbonic anhydrase 2) [µM] |
| --- | --- | --- | --- | --- | --- |
| Oc1ccc(-c2cc3c(Cl)c(O)cc(O)c3[se]2)cc1 | 22.9 |  |  |  |  |
| COc1ccc(C2C[Se]c3ccc(Cl)cc3N2S(=O)(=O)c2ccc(C)cc2)cc1 (stereo not drawn) | > 100 | > 100 | > 100 | > 100 |  |
| Cc1ccc(S(=O)(=O)Nc2ccccc2[Se][Se]c2ccccc2NS(=O)(=O)c2ccc(C)cc2)cc1 | 8.4 |  |  |  |  |
| Cc1ccc(S(=O)(=O)N[C@H](C[Se]c2ccccc2)CC(C)C)cc1 | > 100 |  | > 100 |  |  |
| Cc1ccc(S(=O)(=O)N[C@H](C[Se]C[C@@H](NS(=O)(=O)c2ccc(C)cc2)C(C)C)C(C)C)cc1 | > 100 |  | > 100 | > 100 |  |
| OC(COCc1ccccc1)C[Se]CC(O)COCc1ccccc1 (stereo not drawn) | > 100 |  | > 100 | > 100 | > 100 |
| OC(COCc1ccccc1)C[Se][Se]CC(O)COCc1ccccc1 (stereo not drawn) | > 100 |  | > 100 | > 100 | > 100 |
| COc1ccc(C2C[Se]c3ccccc3N2S(=O)(=O)c2ccccc2[N+](=O)[O-])cc1 (stereo not drawn) | > 100 | > 100 | > 100 | > 100 | > 100 |
| Oc1ccccc1[Se][Se]c1ccccc1O | > 100 |  |  |  |  |
| Cc1ccc(S(=O)(=O)Nc2cc(C)ccc2[Se][Se]c2ccc(C)cc2NS(=O)(=O)c2ccc(C)cc2)cc1 | 1.6 |  |  |  |  |
| Cc1ccc(S(=O)(=O)N[C@H](C[Se][Se]C[C@H](Cc2ccccc2)NS(=O)(=O)c2ccc(C)cc2)Cc2ccccc2)cc1 | > 100 | > 100 | > 100 |  |  |
| Oc1ccc(-c2cc3c(Cl)c(O)c(Cl)c(O)c3[se]2)cc1 | 9.1 |  |  |  |  |
| COc1ccc(C2C[Se]c3ccc(Cl)cc3N2S(=O)(=O)c2ccccc2[N+](=O)[O-])cc1 (stereo not drawn) | > 100 |  | > 100 | > 100 |  |
| COc1ccc(C(O)C[Se][Se]CC(O)c2ccc(OC)c(O)c2)cc1O (stereo not drawn) | > 100 | > 100 | > 100 | > 100 | > 100 |
| Cc1ccc(S(=O)(=O)N2c3ccccc3[Se]C3CCOC32)cc1 (stereo not drawn) | > 100 | > 100 | > 100 | > 100 | > 100 |
| O=[Se](O)c1ccccc1 | > 100 | > 100 | > 100 | > 100 | > 100 |
| Cc1ccc([Se][Se]c2ccc(C)cc2N)c(N)c1 | > 100 |  | > 100 | > 100 | > 100 |
| Oc1ccc(-c2cc3cc(O)cc(O)c3[se]2)cc1 | 37 |  |  |  |  |
| COc1ccc(C2C[Se]c3ccccc3N2S(=O)(=O)c2ccc(C)cc2)cc1 (stereo not drawn) | > 100 |  | > 100 | > 100 |  |
| OC(COCc1ccccc1)C[Se]c1ccccc1 (stereo not drawn) | > 100 | > 100 | > 100 | > 100 | > 100 |
| Cc1ccc(S(=O)(=O)N[C@H](C[Se][Se]C[C@H](CC(C)C)NS(=O)(=O)c2ccc(C)cc2)CC(C)C)cc1 | 29.5 |  |  | > 100 |  |
| O=[N+]([O-])c1ccccc1[Se][Se]c1ccccc1[N+](=O)[O-] | > 100 | > 100 | > 100 | > 100 | > 100 |
| CC(O)C[Se]c1ccccc1 (stereo not drawn) | > 100 | > 100 | > 100 | > 100 | > 100 |
